Test results reported in ChEMBL document CHEMBL5523715, “Inhibitory interactions of the 2,3-dihydro-6,7-dihydroxy-1H-isoindol-1-one scaffold with Bunyavirales cap-snatching endonucleases expose relevant drug design features” (Eur J Med Chem, 2024).
Calls of active or inactive are those of the source. The calls are words filed in the database; no cut-off is given here.

What was measured:
[1] = biological target: RNA-directed RNA polymerase L (Toscana virus) (UniProt P37800); conditions: dose 25.0 µM
Pichinde virus = assay: Thermal stabilization of PICV cap-ENDO assessed as increase in melting temperature at 25 uM in presence of MnCl2 by Sypro Orange dye based assay
[2] = biological target: RNA-directed RNA polymerase L (Andes orthohantavirus, UniProt Q9E005); set-up: species or system Orthohantavirus andesense
[3] = tested on: Mammarenavirus choriomeningitidis; assay: Thermal stabilization of LCMV cap-ENDO assessed as increase in melting temperature at 25 uM in presence of MnCl2 by Sypro Orange dye based assay
[4] = biological target: T1, RNA-directed RNA polymerase L (Toscana virus, UniProt P37800)
[5] = biological target: RNA-directed RNA polymerase L (Andes orthohantavirus) (UniProt Q9E005); conditions: Orthohantavirus andesense; dose 25.0 µM
Mammarenavirus lassaense = assay: Thermal stabilization of LASV cap-ENDO assessed as increase in melting temperature at 25 uM in presence of MnCl2 by Sypro Orange dye based assay
[6] = biological target: RNA-directed RNA polymerase L (Bunyavirus La Crosse) (UniProt A5HC98); conditions: La Crosse virus; dose 25.0 µM
Sequence of RNA-directed RNA polymerase L (Bunyavirus La Crosse) (A5HC98 whole entry): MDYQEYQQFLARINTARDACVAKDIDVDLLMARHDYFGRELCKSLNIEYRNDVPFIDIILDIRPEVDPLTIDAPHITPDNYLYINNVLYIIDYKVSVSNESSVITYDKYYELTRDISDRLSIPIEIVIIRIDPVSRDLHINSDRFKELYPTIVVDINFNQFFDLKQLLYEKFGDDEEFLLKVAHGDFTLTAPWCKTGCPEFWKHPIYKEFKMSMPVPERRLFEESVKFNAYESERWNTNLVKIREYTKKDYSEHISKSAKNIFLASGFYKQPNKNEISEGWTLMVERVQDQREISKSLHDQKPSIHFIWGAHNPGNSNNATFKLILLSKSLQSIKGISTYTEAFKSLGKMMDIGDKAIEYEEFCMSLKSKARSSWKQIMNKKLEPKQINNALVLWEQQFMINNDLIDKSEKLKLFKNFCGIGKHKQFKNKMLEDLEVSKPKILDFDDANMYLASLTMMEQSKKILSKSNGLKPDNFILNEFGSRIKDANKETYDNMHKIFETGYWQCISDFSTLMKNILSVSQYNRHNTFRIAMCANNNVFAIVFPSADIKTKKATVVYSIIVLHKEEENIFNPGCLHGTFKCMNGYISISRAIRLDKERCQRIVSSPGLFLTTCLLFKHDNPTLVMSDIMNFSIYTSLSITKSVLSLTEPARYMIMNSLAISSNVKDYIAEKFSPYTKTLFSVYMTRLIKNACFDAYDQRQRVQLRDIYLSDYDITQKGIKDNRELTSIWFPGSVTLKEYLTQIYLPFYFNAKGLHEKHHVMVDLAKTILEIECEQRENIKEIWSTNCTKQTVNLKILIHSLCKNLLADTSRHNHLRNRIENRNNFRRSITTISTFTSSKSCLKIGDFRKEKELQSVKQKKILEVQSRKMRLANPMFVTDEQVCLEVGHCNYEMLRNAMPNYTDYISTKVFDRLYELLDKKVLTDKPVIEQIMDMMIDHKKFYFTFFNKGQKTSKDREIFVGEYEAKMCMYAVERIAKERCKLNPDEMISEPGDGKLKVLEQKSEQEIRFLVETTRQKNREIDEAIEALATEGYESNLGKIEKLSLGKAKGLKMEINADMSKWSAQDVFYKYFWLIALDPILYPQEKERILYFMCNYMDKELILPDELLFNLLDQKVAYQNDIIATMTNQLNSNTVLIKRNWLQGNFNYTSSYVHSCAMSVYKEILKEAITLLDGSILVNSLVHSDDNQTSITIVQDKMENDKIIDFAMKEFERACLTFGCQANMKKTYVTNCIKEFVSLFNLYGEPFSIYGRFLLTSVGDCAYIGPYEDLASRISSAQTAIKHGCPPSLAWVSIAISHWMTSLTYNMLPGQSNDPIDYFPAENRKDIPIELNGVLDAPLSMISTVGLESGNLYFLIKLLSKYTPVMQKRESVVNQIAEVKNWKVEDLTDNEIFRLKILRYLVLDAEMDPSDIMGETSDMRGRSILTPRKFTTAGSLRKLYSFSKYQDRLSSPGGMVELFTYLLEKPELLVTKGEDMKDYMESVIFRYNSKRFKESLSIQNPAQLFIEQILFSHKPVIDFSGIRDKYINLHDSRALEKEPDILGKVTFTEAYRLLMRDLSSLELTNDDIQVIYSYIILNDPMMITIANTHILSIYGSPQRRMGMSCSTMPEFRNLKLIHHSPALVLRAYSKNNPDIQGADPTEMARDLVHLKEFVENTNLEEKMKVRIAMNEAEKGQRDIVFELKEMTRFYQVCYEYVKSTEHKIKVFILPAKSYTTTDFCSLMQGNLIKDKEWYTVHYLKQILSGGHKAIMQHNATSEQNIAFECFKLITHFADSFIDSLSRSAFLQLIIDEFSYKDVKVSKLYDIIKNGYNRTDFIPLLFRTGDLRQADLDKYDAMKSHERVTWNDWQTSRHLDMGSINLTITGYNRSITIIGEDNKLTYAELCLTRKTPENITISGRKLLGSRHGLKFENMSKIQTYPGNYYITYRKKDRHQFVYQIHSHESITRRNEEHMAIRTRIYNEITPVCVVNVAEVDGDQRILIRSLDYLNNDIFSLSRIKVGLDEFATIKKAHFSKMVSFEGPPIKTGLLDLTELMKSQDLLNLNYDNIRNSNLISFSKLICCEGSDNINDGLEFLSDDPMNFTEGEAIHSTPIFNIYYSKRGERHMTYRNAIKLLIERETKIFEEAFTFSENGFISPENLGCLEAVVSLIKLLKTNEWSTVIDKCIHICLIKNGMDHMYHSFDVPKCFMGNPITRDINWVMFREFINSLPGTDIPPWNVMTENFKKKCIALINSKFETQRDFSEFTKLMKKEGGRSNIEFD

[7] = biological target: RNA-directed RNA polymerase L (Bunyavirus La Crosse, UniProt A5HC98); set-up: species or system La Crosse virus
Sequence of RNA-directed RNA polymerase L (Bunyavirus La Crosse, UniProt A5HC98) (A5HC98 whole entry): as above

[8] = biological target: RNA-directed RNA polymerase L (Toscana virus) (UniProt P37800)
[9] = biological target: RNA-directed RNA polymerase L (Toscana virus) (UniProt P37800); remark: listed apart in the source
[10] = biological target: RNA-directed RNA polymerase L (Toscana virus) (UniProt P37800); remark: listed apart in the source
[11] = biological target: T1, RNA-directed RNA polymerase L; remark: listed apart in the source
[12] = Metal chelating activity assessed as compound-Mg(II) complex formation by measuring apparent formation constant (K) by UV-Vis spectrophotometric analysis; type: functional
[13] = Metal chelating activity assessed as compound-Mn(II) complex formation by measuring apparent formation constant (K) by UV-Vis spectrophotometric analysis; type: functional

Cc1ccc(CN2Cc3ccc(O)c(O)c3C2=O)cc1
Activity [1]: Active
Activity (Pichinde virus): Active
IC50 [2]: 6.4 µM
Activity [3]: Active
IC50 [4]: 1.5 µM
Activity [5]: Active
Activity (Mammarenavirus lassaense): Active
Activity [6]: Active
IC50 [7]: 3.4 µM

O=C1c2c(ccc(O)c2O)CN1Cc1cccc2ccccc12
Activity [1]: Active
Activity (Pichinde virus): Active
IC50 [2]: 3.8 µM
Activity [3]: Active
IC50 [4]: 7.8 µM
Activity [5]: Active
Activity (Mammarenavirus lassaense): Active
Activity [6]: Active
IC50 [7]: 11.2 µM

O=C1c2c(ccc(O)c2O)CN1Cc1ccc(F)cc1
Activity [1]: Active
Activity (Pichinde virus): Active
IC50 [2]: 1.7 µM
Activity [3]: Active
IC50 [4]: 5.7 µM
Activity [5]: Active
Activity (Mammarenavirus lassaense): Active
Activity [6]: Active
IC50 [7]: 4 µM

O=C1c2c(ccc(O)c2O)CN1Cc1ccc(O)c(O)c1
ΔTm [1]: > 1 °C
ΔTm (Pichinde virus): < 1 °C
-TdeltaS [8]: 1.76 kcal/mol
IC50 [2]: 0.5 µM
ΔTm [3]: < 1 °C
IC50 [4]: 2.4 µM
ΔTm [5]: > 1 °C
deltaG [9]: -6.22 kcal/mol
ΔTm (Mammarenavirus lassaense): < 1 °C
deltaH [10]: -7.97 kcal/mol
Kd [11]: 28 µM
ΔTm [6]: > 1 °C
IC50 [7]: 4 µM

O=C1c2c(ccc(O)c2O)CN1Cc1ccc(Cl)c(C(F)(F)F)c1
Activity [1]: Active
Activity (Pichinde virus): Active
IC50 [2]: 1.3 µM
Activity [3]: Active
IC50 [4]: 7.3 µM
Activity [5]: Active
Activity (Mammarenavirus lassaense): Active
Activity [6]: Active
IC50 [7]: 29.2 µM

O=C1c2c(ccc(O)c2O)CN1Cc1ccc([N+](=O)[O-])cc1
Activity [1]: Active
Activity (Pichinde virus): Active
IC50 [2]: 3.7 µM
Activity [3]: Active
IC50 [4]: 4.7 µM
Activity [5]: Active
Activity (Mammarenavirus lassaense): Active
Activity [6]: Active
IC50 [7]: 8 µM

O=C1c2c(ccc(O)c2O)CN1Cc1ccc(O)cc1
Activity [1]: Active
Activity (Pichinde virus): Active
IC50 [2]: 1.6 µM
log(activity) [12]: 2.31
Activity [3]: Active
IC50 [4]: 3.6 µM
Activity [5]: Active
log(activity) [13]: 3.37
Activity (Mammarenavirus lassaense): Active
Activity [6]: Active
IC50 [7]: 0.7 µM

O=C1c2c(ccc(O)c2O)CN1Cc1cc(O)c(O)c(O)c1
Activity [1]: Active
Activity (Pichinde virus): Active
IC50 [2]: 1.5 µM
Activity [3]: Active
IC50 [4]: 0.9 µM
Activity [5]: Active
Activity (Mammarenavirus lassaense): Active
Activity [6]: Active
IC50 [7]: 1.1 µM

O=C1c2c(ccc(O)c2O)CN1Cc1ccc2ccccc2c1
Activity [1]: Active
Activity (Pichinde virus): Active
IC50 [2]: 1.9 µM
Activity [3]: Active
IC50 [4]: 5.8 µM
Activity [5]: Active
Activity (Mammarenavirus lassaense): Active
Activity [6]: Active
IC50 [7]: 3.9 µM

O=C1c2c(ccc(O)c2O)CN1CCc1ccc(O)cc1
Activity [1]: Active
Activity (Pichinde virus): Active
IC50 [2]: 1 µM
Activity [3]: Active
IC50 [4]: 2.8 µM
Activity [5]: Active
Activity (Mammarenavirus lassaense): Active
Activity [6]: Active
IC50 [7]: 6.1 µM

O=C1c2c(ccc(O)c2O)CN1Cc1ccccc1
Activity [1]: inactive
Activity (Pichinde virus): inactive
IC50 [2]: 1.1 µM
Activity [3]: inactive
IC50 [4]: 3.3 µM
Activity [5]: inactive
Activity (Mammarenavirus lassaense): inactive
Activity [6]: inactive
IC50 [7]: 9 µM

O=C1c2c(ccc(O)c2O)CN1Cc1ccc(F)c(Cl)c1
Activity [1]: inactive
Activity (Pichinde virus): inactive
IC50 [2]: 7.6 µM
Activity [3]: inactive
IC50 [4]: 13.4 µM
Activity [5]: inactive
Activity (Mammarenavirus lassaense): inactive
Activity [6]: inactive
IC50 [7]: 4.8 µM
